# Data: patent publication US20200262877A1, “ION CHANNEL-BINDING PEPTIDES AND METHODS OF USE THEREOF” (priority 2017, published 2020)
# Where a name gives a salt, the structure may show the parent alone.
# What was measured:
# Cav2.1 = target: T1, Cav2.1 (Homo sapiens, UniProt O00555); assay: cell-based; details: Cav2.1; read-out: IC50 of receptor/channel inhibition with reference compound
# T1 construct: host or cells: HEK293 or CHO
# Procedure: (§1) This example describes a method for assaying ion channel activity in cells.
# (§2) Peptides were screened in duplicate at final concentrations of 20 μM and 200 nM, as determined by amino acid analysis, and diluted into HEPES buffered physiological saline (HBPS). HEK293 or CHO cells from the American Type Culture Collection (ATCC) were transfected with the appropriate ion channel before use. HEK293 cells were grown in Dulbecco's Modified Eagle Medium/Nutrient Mixture F-12, and CHO cells were cultured in Ham's F-12 media. All cultures were supplemented with 10% fetal bovine serum, 100 U/ml penicillin G, 100 μg/ml streptomycin sulfate, and the appropriate selection antibiotics. Prior to use, cells were washed twice with Hank's Balanced Salt Solution, and treated with Accutase cell detachment solution (Sigma-Aldrich). Cells were then washed. Peptides and controls were incubated with cells for at least five minutes.
# (§3) Percent inhibition was defined as: (1-(Ipeptide/Icontrol))×100%).
# (§4) Percent values were calculated using the following formula: % activation=(IPeptide/Icontrol)×100%, where IPeptide is the current produced by co-application a peptide with agonist, and Icontrol refers to the current produced by stimulation in control. Control used for each ion channel is the reference compound matched to a particular channel, as illustrated in TABLE 10 below.
# Cav2.2 = target: T2, Cav2.2 (Homo sapiens, UniProt Q00975); assay: cell-based; details: Cav2.2; read-out: IC50 of receptor/channel inhibition with reference compound
# T2 construct: host or cells: HEK293 or CHO
# Procedure: as §1, §2, §3, §4
# Kv2.1 = target: T3, Kv2.1 (Homo sapiens, UniProt Q14721); assay: cell-based
# T3 construct: host or cells: HEK293 or CHO
# Procedure: as §1, §2, §3, §4
# Nav1.7 = target: T4, Nav1.7 (Homo sapiens, UniProt Q15858); assay: cell-based; assay type: cell-based; details: 0.2 or 20 μM; FIG. 2
# T4 construct: host or cells: HEK293 or CHO
# Procedure: as §1
# as §2, with “Peptides were screened in duplicate at final concentrations of 20 μM and 200 nM, as determined by amino acid analysis, and diluted into HEPES buffered physiological saline (HBPS).” left out
# as §3, §4
# Kv1.3 = target: T5, Kv1.3 (Homo sapiens, UniProt P22001); assay: cell-based; assay type: cell-based; details: 0.2 or 20 μM; FIG. 2
# T5 construct: host or cells: HEK293 or CHO
# Procedure: as §1, §2, §3, §4
# GABA = assay: Ion channel panel (IonWorks Barracuda): GABA; assay type: cell-based; details: GABA; read-out: IC50 of receptor/channel inhibition with reference compound
# Procedure: as §1, §2, §3, §4
# T5 sequence (P22001 whole entry): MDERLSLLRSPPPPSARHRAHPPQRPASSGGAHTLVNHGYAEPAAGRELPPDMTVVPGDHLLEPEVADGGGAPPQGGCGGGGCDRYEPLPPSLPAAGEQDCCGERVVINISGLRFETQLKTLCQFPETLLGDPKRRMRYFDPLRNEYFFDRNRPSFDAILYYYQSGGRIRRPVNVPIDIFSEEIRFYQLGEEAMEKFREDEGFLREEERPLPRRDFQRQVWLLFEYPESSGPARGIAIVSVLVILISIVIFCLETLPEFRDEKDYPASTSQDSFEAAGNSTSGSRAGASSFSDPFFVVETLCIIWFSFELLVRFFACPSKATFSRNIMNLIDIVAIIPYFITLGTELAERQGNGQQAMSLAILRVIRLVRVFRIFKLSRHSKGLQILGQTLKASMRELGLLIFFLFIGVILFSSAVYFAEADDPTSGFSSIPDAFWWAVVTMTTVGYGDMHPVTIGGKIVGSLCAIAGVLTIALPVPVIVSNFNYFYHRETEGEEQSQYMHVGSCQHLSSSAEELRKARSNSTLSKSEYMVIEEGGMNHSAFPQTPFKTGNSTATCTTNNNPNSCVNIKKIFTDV
# T2 sequence (Q00975 whole entry): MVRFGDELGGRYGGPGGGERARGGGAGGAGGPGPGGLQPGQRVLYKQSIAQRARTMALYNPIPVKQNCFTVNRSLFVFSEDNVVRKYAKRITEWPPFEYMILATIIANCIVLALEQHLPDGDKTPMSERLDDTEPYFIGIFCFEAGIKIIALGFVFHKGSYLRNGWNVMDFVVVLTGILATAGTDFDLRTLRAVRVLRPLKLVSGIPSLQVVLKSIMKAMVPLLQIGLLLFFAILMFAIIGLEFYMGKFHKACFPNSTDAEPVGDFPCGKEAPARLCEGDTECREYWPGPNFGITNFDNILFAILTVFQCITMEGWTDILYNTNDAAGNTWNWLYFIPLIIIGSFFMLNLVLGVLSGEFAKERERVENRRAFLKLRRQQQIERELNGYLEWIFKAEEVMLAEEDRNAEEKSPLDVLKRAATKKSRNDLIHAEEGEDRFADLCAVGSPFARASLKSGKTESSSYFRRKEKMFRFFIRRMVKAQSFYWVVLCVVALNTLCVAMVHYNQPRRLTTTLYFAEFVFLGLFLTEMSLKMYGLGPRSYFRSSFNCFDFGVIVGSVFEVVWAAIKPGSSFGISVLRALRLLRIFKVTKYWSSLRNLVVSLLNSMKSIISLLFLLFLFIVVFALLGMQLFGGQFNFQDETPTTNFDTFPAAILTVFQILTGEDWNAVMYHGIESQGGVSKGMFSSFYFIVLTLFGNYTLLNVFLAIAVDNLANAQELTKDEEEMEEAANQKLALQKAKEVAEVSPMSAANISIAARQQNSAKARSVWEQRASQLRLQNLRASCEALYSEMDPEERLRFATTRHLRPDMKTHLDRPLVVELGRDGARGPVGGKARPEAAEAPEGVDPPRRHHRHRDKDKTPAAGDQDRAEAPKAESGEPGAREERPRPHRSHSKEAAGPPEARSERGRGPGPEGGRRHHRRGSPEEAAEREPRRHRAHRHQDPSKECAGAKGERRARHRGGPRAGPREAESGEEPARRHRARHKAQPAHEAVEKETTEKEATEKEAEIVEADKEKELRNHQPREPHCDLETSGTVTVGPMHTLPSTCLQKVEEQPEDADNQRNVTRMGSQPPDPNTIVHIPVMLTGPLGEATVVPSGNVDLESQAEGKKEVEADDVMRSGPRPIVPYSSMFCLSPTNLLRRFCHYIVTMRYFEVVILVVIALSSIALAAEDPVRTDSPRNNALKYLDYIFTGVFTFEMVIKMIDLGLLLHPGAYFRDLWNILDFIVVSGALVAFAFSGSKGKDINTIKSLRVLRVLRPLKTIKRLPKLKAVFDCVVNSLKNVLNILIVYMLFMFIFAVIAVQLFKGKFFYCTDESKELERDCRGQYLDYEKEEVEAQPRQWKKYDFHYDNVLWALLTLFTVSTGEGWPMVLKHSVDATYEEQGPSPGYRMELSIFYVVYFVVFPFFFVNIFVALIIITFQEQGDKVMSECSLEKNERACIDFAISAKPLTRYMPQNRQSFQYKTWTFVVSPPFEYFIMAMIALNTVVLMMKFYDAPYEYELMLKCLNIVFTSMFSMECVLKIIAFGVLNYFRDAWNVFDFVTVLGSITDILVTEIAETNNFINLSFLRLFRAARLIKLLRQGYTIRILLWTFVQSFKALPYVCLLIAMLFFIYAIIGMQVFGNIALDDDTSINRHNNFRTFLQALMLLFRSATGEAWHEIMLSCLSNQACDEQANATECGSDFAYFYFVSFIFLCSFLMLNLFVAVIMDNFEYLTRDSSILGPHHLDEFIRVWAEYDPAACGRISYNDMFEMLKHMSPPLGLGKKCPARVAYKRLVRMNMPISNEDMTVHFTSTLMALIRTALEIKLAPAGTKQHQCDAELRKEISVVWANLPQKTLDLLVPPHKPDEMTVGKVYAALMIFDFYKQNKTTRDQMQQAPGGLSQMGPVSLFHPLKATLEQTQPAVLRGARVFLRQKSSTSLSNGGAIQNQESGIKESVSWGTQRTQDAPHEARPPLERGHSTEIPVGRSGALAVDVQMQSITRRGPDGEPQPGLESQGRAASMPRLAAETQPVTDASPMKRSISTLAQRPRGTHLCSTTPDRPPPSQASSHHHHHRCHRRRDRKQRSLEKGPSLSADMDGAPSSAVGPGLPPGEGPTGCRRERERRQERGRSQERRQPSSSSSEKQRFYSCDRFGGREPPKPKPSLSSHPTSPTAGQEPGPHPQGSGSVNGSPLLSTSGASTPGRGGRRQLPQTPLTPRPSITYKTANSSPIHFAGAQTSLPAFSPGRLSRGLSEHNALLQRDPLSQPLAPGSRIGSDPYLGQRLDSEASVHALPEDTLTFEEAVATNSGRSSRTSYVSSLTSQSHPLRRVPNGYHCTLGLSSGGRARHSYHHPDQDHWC
# T2 sequence (P54289 25-1103, further chain): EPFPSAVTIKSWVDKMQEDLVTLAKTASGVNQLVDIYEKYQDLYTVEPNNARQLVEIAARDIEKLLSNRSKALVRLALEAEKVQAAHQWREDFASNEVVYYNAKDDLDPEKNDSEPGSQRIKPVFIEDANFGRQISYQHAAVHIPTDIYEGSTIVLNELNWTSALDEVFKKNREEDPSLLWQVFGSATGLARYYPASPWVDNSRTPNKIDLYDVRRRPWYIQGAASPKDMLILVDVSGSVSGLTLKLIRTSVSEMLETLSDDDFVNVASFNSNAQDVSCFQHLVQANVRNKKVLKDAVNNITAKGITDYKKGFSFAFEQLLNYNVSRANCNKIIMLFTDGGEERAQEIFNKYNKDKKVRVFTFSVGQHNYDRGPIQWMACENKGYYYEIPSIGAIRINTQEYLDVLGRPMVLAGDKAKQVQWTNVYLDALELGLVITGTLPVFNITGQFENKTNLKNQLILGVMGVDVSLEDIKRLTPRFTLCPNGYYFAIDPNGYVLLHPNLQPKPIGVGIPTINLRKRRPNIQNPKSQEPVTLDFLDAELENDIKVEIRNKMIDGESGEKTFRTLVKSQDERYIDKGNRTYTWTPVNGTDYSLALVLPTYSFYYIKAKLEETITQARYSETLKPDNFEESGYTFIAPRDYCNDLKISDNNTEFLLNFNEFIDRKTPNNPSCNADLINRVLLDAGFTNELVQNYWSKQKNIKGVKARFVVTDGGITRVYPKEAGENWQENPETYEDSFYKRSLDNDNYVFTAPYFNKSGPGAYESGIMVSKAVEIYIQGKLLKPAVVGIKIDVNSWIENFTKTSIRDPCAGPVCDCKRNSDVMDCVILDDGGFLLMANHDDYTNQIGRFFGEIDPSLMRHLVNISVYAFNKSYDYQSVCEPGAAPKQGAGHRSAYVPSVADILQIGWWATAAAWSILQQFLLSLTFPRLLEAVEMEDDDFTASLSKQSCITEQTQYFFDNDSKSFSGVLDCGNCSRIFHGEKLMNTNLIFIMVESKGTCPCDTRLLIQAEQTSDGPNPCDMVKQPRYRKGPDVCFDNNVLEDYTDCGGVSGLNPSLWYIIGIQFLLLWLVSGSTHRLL
# T2 sequence (P54284 whole entry, further chain): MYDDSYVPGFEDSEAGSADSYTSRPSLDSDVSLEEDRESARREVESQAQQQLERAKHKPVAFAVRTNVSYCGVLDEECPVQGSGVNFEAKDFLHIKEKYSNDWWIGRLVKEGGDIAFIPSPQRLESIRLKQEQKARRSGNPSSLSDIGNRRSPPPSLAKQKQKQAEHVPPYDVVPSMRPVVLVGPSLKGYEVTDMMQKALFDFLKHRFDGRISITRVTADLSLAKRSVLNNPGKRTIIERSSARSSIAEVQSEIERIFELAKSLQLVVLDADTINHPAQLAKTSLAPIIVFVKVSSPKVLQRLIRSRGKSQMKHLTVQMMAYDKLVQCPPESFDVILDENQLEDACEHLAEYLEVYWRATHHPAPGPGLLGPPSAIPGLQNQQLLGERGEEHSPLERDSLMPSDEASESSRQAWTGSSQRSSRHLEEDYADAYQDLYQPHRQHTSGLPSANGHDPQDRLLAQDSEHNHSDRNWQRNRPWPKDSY
molecule,measurement,setting,value
"COCC(=O)O[C@]1(CCN(C)CCCc2nc3ccccc3[nH]2)CCc2cc(F)ccc2[C@@H]1C(C)C [Mibefradil dihydrochloride, reference compound]",IC50,Cav2.1,2120 nM
same,IC50,Cav2.2,8.28 µM
"COc1ccc(CCN(C)CCCC(C#N)(c2ccc(OC)c(OC)c2)C(C)C)cc1OC (stereo not shown) [Verapamil, reference compound]",IC50,Kv2.1,78 µM
GSECLEIFKACNPSNDQCCKSSKLVCSRKTRWCKYQIG [SEQ ID NO: 31],Activity against Nav1.7 channels,Nav1.7,"showed activity on tetrodotoxin-sensitive sodium channels (e.g., Nav1.7)"
GSGVPTDVKCRGSPQCIQPCKDAGMRFGKCMNGKCHCTPK [SEQ ID NO: 39],Kv1.3 inhibition,Kv1.3,showed strong Kv1.3 inhibition
GSQFTDVKCTGSKQCWPVCKQMFGKPNGKCMNGKCRCYS [SEQ ID NO: 19],Kv1.3 inhibition,Kv1.3,showed strong Kv1.3 inhibition
Picrotoxin [reference compound],IC50,GABA,1720 nM
